Test results: patent publication US20050142121A1, “System for improving acceptance of tissue grafts made from embryonic stem cells” (priority 2003, published 2005)

Tested on: mouse model for coronary infarction
Test: hES-derived cardiomyocyte transplant in mouse model for coronary infarction, echocardiography
Type: in vivo
Details: for cardiac improvement upon grafting with hES derived cardiomyocytes (measured by echocardiography): grafts pre-treated with the agent, animals optionally pre-conditioned with allopurinol and uricase, result in words
Description: Cardiomyocytes were differentiated from human embryonic stem (hES) cells and purified by density gradient centrifugation on Percoll™, according to established methods (WO 03/006950). They were adapted to decrease uric acid production upon engraftment by culturing for 24 hours in standard differentiation medium (containing 20% FBS) to which had been added 50 μg/mL allopurinol, or 0.5 Units/mL human recombinant erythropoietin (EPO). Alternatively, the cells were heat shocked in standard differentiation medium (20% FBS) by incubating at 43° C. for 45 minutes, and then transferring to a 37° C. incubator 24 h prior to harvest.
Recipient mice were prepared to decrease uric acid production by the engrafted cells by daily injection of 800 μg allopurinol and/or 10 μg uricase intramuscularly for each of the 3 days before transplant.
The transplant experiments were performed using a mouse model for coronary infarction in an external research laboratory under a Research Agreement with Geron Corporation. The left anterior descending artery was ligated as follows. Mice were anesthetized in an isoflurane inhalation chamber and received intraperitoneal injection of Ketanest/Xylazine (50 mg/kg). They were then intubated and ventilated for the entire surgical procedure. Rectal temperature was maintained at 37° C. by a thermostatically regulated heating pad. One ligation with a 9.0 silk stitch was performed on the proximal 2 mm portion of the artery.
Using a 25 g needle, 0.25-2×10^6 cells (suspended in differentiation medium without serum) were injected into the demarcated area. Immediately afterwards, a chest tube (16 G Angio-cath) was inserted and the chest was closed in layers. Ventilation was maintained until there was sufficient spontaneous breathing, and extubation followed. The ventricular diameter was measured after three weeks by echocardiography. Fractional shortening ([…])≡[(diameter at diastole minus diameter at systole)÷(diameter at diastole)].

Row | SMILES | cardiac improvement upon grafting with hES derived cardiomyocytes (measured by echocardiography) | Fractional shortening at 3 weeks post-treatment (infarcted mice (left anterior descending artery ligation), 0.25-2x10^6 cells injected into infarct area, echocardiography after three weeks) [%]
1 | Oc1ncnc2[nH]ncc12 [allopurinol] | considerably enhanced | 24
2 | CC(C)Cc1ccc(C(C)C(=O)O)cc1 (stereo not drawn) [ibuprophen] | considerably enhanced | –
